Measurements as given in US20260327193A1, “INHIBITORS OF PLASMA KALLIKREIN” (Rezolute, Inc., priority 2022, published 2026).

Experiments:
Plasma Kallikrein [1] = molecular target: T1, Plasma Kallikrein (Homo sapiens, UniProt P03952); assay: Plasma kallikrein activity in pooled human plasma; assay type: biochemical; set-up: Plasma Kallikrein activity was also measured in pooled human plasma; from tissue; host or cells: pooled human plasma; details: Z-FR-AMC substrate, activated with 10% Actin FS solution, 10 minutes, read-out: Pooled Human Plasma PKal IC50
Method: (§1) Plasma kallikrein protease inhibition assay. Two methods for determining the IC50 of a test compound against Plasma Kallikrein are provided.
Second, Plasma Kallikrein activity was also measured in pooled human plasma. First, a 10% Actin FS solution was prepared in assay buffer. Each test compound was dissolved in DMSO and delivered to the reaction mixture along with Z-FR-AMC substrate and pooled human plasma. The multi-well reaction plate was incubated for five minutes at room temperature. To initiate the reaction, the 10% Actin FS solution was added to each well, and kinetic measurements were taken at Ex/Em at 355/460 nm. The fluorescence signal was recorded every 30 seconds for a total of 10 minutes.

Plasma Kallikrein [2] = molecular target: T1, Plasma Kallikrein; assay: Plasma kallikrein protease inhibition assay, purified enzyme; assay type: biochemical; set-up: NS0-derived Gly20-Ala638, with a C-terminal 60-His tag; 60-His (so in the source) (C); purchased R&D Systems 2497-SE; host or cells: Mouse myeloma cell line, NS0; details: 10 μM Z-FR-AMC substrate, 20-minute pre-incubation, pH 8.0/8.5, room temperature, read-out: Purified PKal IC50
Method: as §1
In the first method was used a reaction buffer composed of 25 mM Tris-HCl (pH 8.0), 100 mM NaCl (pH 8.5), 0.01% Brij35, and 1% DMSO (final). The enzyme used was Plasma Kallikrein (R&D Systems Cat #2497-SE; Recombinant Human Plasma Kallikrein, expressed in Mouse myeloma cell line, NS0-derived Gly20-Ala638, with a C-terminal 60-His tag. MW=70 kDa).
The enzyme was activated by dilution to 200 μg/mL in activation buffer (100 mM Tris, 10 mM CaCl2, 150 mM NaCl, pH 7.5 (TCN), and then combined with an equal volume of 20 μg/mL thermolysin to form a reaction buffer. Each test compound was then dissolved in DMSO and delivered into the reaction buffer. The reaction was initiated by delivering a substrate solution containing 10 μM Z-FR-AMC (Enzo Cat #P-139; AMC: 7-Amino-4-methylcoumarin) into the reaction well after a 20-minute pre-incubation period.
Measurement was conducted with En Vision (PE) with excitation and emission wavelengths of 355 nm and 460 nm, respectively. […]. The enzyme activities were monitored every 5 minutes as a time-course measurement of the increase in signal from fluorescently labeled peptide substrate for 120 minutes at room temperature.
Data was analyzed by taking slope*(signal/time) of the linear portion of measurements. Slope was calculated using Excel, and curve fits were performed using Prism software.

T1 sequence (P03952 391-638 limits assumed): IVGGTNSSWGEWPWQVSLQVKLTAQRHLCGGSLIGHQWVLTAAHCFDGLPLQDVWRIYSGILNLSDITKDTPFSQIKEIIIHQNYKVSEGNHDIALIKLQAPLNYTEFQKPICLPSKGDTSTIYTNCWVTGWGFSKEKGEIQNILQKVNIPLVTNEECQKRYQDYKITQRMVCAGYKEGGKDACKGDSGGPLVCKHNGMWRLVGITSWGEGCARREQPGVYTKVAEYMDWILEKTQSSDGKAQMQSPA
T1 sequence (P03952 20-390 partner limits assumed): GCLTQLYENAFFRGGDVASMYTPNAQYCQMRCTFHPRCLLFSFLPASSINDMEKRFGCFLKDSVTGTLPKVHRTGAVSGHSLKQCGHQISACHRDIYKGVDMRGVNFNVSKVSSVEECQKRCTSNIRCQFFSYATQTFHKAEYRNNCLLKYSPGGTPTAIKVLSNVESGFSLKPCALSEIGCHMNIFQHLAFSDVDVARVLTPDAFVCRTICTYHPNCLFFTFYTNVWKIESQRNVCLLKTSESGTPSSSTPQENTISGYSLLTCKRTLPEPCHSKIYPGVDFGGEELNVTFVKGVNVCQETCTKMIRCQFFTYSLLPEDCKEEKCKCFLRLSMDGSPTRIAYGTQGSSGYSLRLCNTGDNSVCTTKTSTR

| SMILES | IC50 (Plasma Kallikrein [1]) | IC50 (Plasma Kallikrein [2]) |
| --- | --- | --- |
| N=C(N)c1ccc(CNC(=O)c2cnn(Cc3ccc(CO)cc3)c2)cc1 [Example 2, N-(4-carbamimidoylbenzyl)-1-(4-(hydroxymethyl)benzyl)-1H-pyrazole-4-carboxamide] | < 100 nM | 1 to 10 nM |
| CC(C#N)c1ccc(Cn2cc(C(=O)NCc3ccc(C(=N)N)cc3)cn2)cc1 (stereo not drawn) [Example 5, N-(4-carbamimidoylbenzyl)-1-(4-(1-cyanoethyl)benzyl)-1H-pyrazole-4-carboxamide] | – | 1 to 10 nM |
| N#Cc1ccc(-c2ccc(Cn3cc(C(=O)NCc4ccc(C(=N)N)cc4)cn3)cc2)cc1 [Example 13, N-(4-carbamimidoylbenzyl)-1-((4′-cyano-[1,1′-biphenyl]-4-yl)methyl)-1H-pyrazole-4-carboxamide] | < 100 nM | < 1 nM |
| N#Cc1ccc(Cc2ccc(Cn3cc(C(=O)NCc4ccc(C(=N)N)cc4)cn3)cc2)cc1 [Example 14, N-(4-carbamimidoylbenzyl)-1-(4-(4-cyanobenzyl)benzyl)-1H-pyrazole-4-carboxamide] | 100 to 1000 nM | < 1 nM |
| N#Cc1ccn(-c2ccc(Cn3cc(C(=O)NCc4ccc(C(=N)N)cc4)cn3)cc2)c1 [Example 25, N-(4-carbamimidoylbenzyl)-1-(4-(3-cyano-1H-pyrrol-1-yl)benzyl)-1H-pyrazole-4-carboxamide] | < 100 nM | < 1 nM |
| CC(C)(C#N)c1ccc(Cn2cc(C(=O)NCc3cc(F)c(C(=N)N)c(F)c3)cn2)cc1 [Example 44, N-(4-carbamimidoyl-3,5-difluorobenzyl)-1-(4-(2-cyanopropan-2-yl)benzyl)-1H-pyrazole-4-carboxamide] | > 1000 nM | > 100 nM |
| COCCc1cccc(Cn2cc(C(=O)NCc3ccc(C(=N)N)cc3)cn2)c1 [Example 69, N-(4-carbamimidoylbenzyl)-1-(3-(2-methoxyethyl)benzyl)-1H-pyrazole-4-carboxamide] | < 100 nM | 1 to 10 nM |
| N#CCc1ccccc1Cn1cc(C(=O)NCc2ccc(C(=N)N)cc2)cn1 [Example 70, N-(4-carbamimidoylbenzyl)-1-(2-(cyanomethyl)benzyl)-1H-pyrazole-4-carboxamide] | 100 to 1000 nM | 10 to 100 nM |
| CC(C)(C#N)c1ccc(Cn2ncc(C(=O)NCc3ccc(C(=N)N)cc3)c2C2CC2)cc1 [Example 83, N-(4-carbamimidoylbenzyl)-1-(4-(2-cyanopropan-2-yl)benzyl)-5-cyclopropyl-1H-pyrazole-4-carboxamide] | 100 to 1000 nM | 10 to 100 nM |
| CCCc1c(C(=O)NCc2ccc(C(=N)N)cc2)ncn1Cc1ccc(C(C)(C)C#N)cc1 [Example 84, N-(4-carbamimidoylbenzyl)-1-(4-(2-cyanopropan-2-yl)benzyl)-5-propyl-1H-imidazole-4-carboxamide] | > 1000 nM | > 100 nM |

Now from value to compound:

| IC50 (Plasma Kallikrein [1]) | IC50 (Plasma Kallikrein [2]) | SMILES |
| --- | --- | --- |
| – | 1 to 10 nM | N#CCc1ccc(Cc2cc(C(=O)NCc3ccc(C(=N)N)cc3)on2)cc1 [Example 10, N-(4-carbamimidoylbenzyl)-3-(4-(cyanomethyl)benzyl) isoxazole-5-carboxamide] |
| – | 1 to 10 nM | N#CCc1ccc(Cc2cc(C(=O)NCc3ccc(C(=N)N)cc3)sn2)cc1 [Example 11] |
| < 100 nM | < 1 nM | COCc1ccc(Cn2cc(C(=O)NCc3ccc(C(=N)N)cc3)cn2)cc1 [Example 71, N-(4-carbamimidoylbenzyl)-1-(4-(methoxymethyl)benzyl)-1H-pyrazole-4-carboxamide] |
| 100 to 1000 nM | 10 to 100 nM | N#CCc1ccc(Cn2cc(C(=O)NCc3ccc(C(=N)N)c(F)c3)cn2)cc1 [Example 72, N-(4-carbamimidoyl-3-fluorobenzyl)-1-(4-(cyanomethyl)benzyl)-1H-pyrazole-4-carboxamide] |
| < 100 nM | 1 to 10 nM | COCCc1ccc(Cn2cc(C(=O)NCc3ccc(C(=N)N)c(F)c3)cn2)cc1 [Example 73, N-(4-carbamimidoyl-3-fluorobenzyl)-1-(4-(2-methoxyethyl)benzyl)-1H-pyrazole-4-carboxamide] |
| 100 to 1000 nM | 1 to 10 nM | CNC(=O)Cc1ccc(Cn2cc(C(=O)NCc3ccc(C(=N)N)c(F)c3)cn2)cc1 [Example 74, N-(4-carbamimidoyl-3-fluorobenzyl)-1-(4-(2-(methylamino)-2-oxoethyl)benzyl)-1H-pyrazole-4-carboxamide] |
| > 1000 nM | > 100 nM | COCc1c(C(=O)NCc2ccc(C(=N)N)c(F)c2)cnn1Cc1ccc(CC#N)cc1 [Example 75, N-(4-carbamimidoyl-3-fluorobenzyl)-1-(4-(cyanomethyl)benzyl)-5-(methoxymethyl)-1H-pyrazole-4-carboxamide] |
| < 100 nM | < 1 nM | Cc1c(C(=O)NCc2ccc(C(=N)N)cc2)cnn1Cc1ccc(C(C)(C)C#N)cc1 [Example 81, N-(4-carbamimidoylbenzyl)-1-(4-(2-cyanopropan-2-yl)benzyl)-5-methyl-1H-pyrazole-4-carboxamide] |
| < 100 nM | 10 to 100 nM | COCc1c(C(=O)NCc2ccc(C(=N)N)cc2)cnn1Cc1ccc(C(C)(C)C#N)cc1 [Example 82, N-(4-carbamimidoylbenzyl)-1-(4-(2-cyanopropan-2-yl)benzyl)-5-(methoxymethyl)-1H-pyrazole-4-carboxamide] |
| 100 to 1000 nM | 10 to 100 nM | COCc1c(C(=O)NCc2ccc(C(=N)N)cc2)cnn1Cc1ccc(CC#N)cc1 [Example 85, N-(4-carbamimidoylbenzyl)-1-(4-(cyanomethyl)benzyl)-5-(methoxymethyl)-1H-pyrazole-4-carboxamide] |
| 100 to 1000 nM | 10 to 100 nM | N#CCc1ccc(Cn2ncc(C(=O)NCc3ccc(C(=N)N)cc3)c2C2CC2)cc1 [Example 86, N-(4-carbamimidoylbenzyl)-1-(4-(cyanomethyl)benzyl)-5-cyclopropyl-1H-pyrazole-4-carboxamide] |
